{"source": "paper PMC6688628", "about": "“N-Substituted Pyrrole Derivative 12m Inhibits HIV-1 Entry by Targeting Gp41 of HIV-1 Envelope Glycoprotein” (Frontiers in Pharmacology, 2019)", "key": {"[1]": {"tested_on": "HIV-1 92UG029", "assay": "Anti-HIV-1 activity, primary strain 92UG029", "type": "cell-based", "conditions": "Human immunodeficiency virus 1, luciferase readout, mean ± SD"}, "[2]": {"assay": "XTT assay, U87-CD4-CXCR4 cells", "type": "cell-based", "conditions": "human", "procedure": "(§1) The in vitro cell viability of NSPD-12m on HIV-1 target cells (U87-CD4-CXCR4, U87-CD4-CCR5, TZM-bl, and MT-2 cells) and HIV effector cells (CHO-WT cells) was analyzed by an XTT colorimetric assay. Briefly, 100 µl of 5 × 10^5/ml cells was mixed and incubated with 100 µl of NSPD-12m at graded concentrations at 37°C for 3 days. Then, 50 µl of XTT solution (1 mg/ml) containing 0.02 µM of phenazinemethosulphate (PMS) was added to each well, and the cells were incubated at 37°C for another 4 h. The absorbance at 450 nm was measured with an ELISA reader. The 50% cytotoxicity concentrations (CC50) were calculated using the CalcuSyn software ([Chou and Talalay, 1984])."}, "[3]": {"tested_on": "HIV-1 NL4-3(36G)V38A", "conditions": "T20-resistant NL4-3(36G)V38A; p24 ELISA; mean ± SD"}, "[4]": {"tested_on": "HIV-1 NL4-3(36G)V38E,N42S", "conditions": "T20-resistant NL4-3(36G)V38E,N42S; p24 ELISA; mean ± SD"}, "[5]": {"tested_on": "HIV-1 NL4-3(36G)V38A,N42T", "conditions": "T20-resistant NL4-3(36G)V38A,N42T; p24 ELISA; mean ± SD"}, "[6]": {"tested_on": "primary HIV-1 strains, including the X4, R5, and X4R5 strains", "assay": "Anti-HIV-1 activity, panel of primary HIV-1 strains", "type": "cell-based", "conditions": "Human immunodeficiency virus 1; range over X4, R5 and X4R5 primary strains; read-out: EC50 values against all tested representative primary HIV-1 strains", "procedure": "The HIV-1 replication-inhibiting activity of compounds was determined as previously described ([Li et al., 2013]). Briefly, 1 × 10^4 TZM-bl or MT-2 cells were infected with primary HIV-1 strains or T20-resistant HIV-1 strains (100 TCID50) in 200 µl of RPMI-1640 medium containing 10% FBS in the presence or absence of compounds at graded concentrations for 12 h. The culture medium was replaced with fresh medium without the compounds. After culture for an additional 48 h, supernatants or cells were collected from each well. For the primary HIV-1 strains, the cells were treated using a luciferase kit. Briefly, the cells were lysed with the lysis reagent and were transferred into a 96-well flat-bottom luminometer plate after three washes with phosphate-buffered saline (PBS) (Costar Corning Inc., Corning, NY), followed by addition of the luciferase substrate included in the luciferase kit (Promega Corp., Madison, WI). The luciferase activity was measured immediately by an Ultra 384 microplate reader (Tecan, Research Triangle Park, NC). T20 was used as a positive control. For the T20-resistant HIV-1 strains, 100 µl of culture supernatant was mixed with 100 µl of 5% Triton X-100. […] Absorbance at 450 nm was recorded in an ELISA reader (Ultra 384, Tecan). EC50 values were calculated using the computer program CalcuSyn ([Chou and Talalay, 1984])."}, "[7]": {"tested_on": "HIV-1JR-FL Env mutant R579A pseudovirus", "type": "cell-based", "conditions": "compared with wild-type HIV-1JR-FL pseudovirus"}, "[8]": {"tested_on": "HIV-1 BCF02", "assay": "microbe, parasite or virus in culture", "type": "cell-based", "conditions": "Human immunodeficiency virus 1, primary strain BCF02, luciferase readout, mean ± SD", "procedure": "(§2) The HIV-1 replication-inhibiting activity of compounds was determined as previously described ([Li et al., 2013]). Briefly, 1 × 10^4 TZM-bl or MT-2 cells were infected with primary HIV-1 strains or T20-resistant HIV-1 strains (100 TCID50) in 200 µl of RPMI-1640 medium containing 10% FBS in the presence or absence of compounds at graded concentrations for 12 h. The culture medium was replaced with fresh medium without the compounds. After culture for an additional 48 h, supernatants or cells were collected from each well. For the primary HIV-1 strains, the cells were treated using a luciferase kit. Briefly, the cells were lysed with the lysis reagent and were transferred into a 96-well flat-bottom luminometer plate after three washes with phosphate-buffered saline (PBS) (Costar Corning Inc., Corning, NY), followed by addition of the luciferase substrate included in the luciferase kit (Promega Corp., Madison, WI). The luciferase activity was measured immediately by an Ultra 384 microplate reader (Tecan, Research Triangle Park, NC). T20 was used as a positive control. For the T20-resistant HIV-1 strains, 100 µl of culture supernatant was mixed with 100 µl of 5% Triton X-100. Then, those virus lysates were assayed for p24 antigen by enzyme linked immunosorbent assay (ELISA) as previously described ([Li et al., 2010]). Absorbance at 450 nm was recorded in an ELISA reader (Ultra 384, Tecan). EC50 values were calculated using the computer program CalcuSyn ([Chou and Talalay, 1984])."}, "[9]": {"tested_on": "HIV-1 93/BR/020", "assay": "microbe, parasite or virus in culture", "type": "cell-based", "conditions": "Human immunodeficiency virus 1, primary strain 93/BR/020, luciferase readout, mean ± SD", "procedure": "as §2"}, "[10]": {"tested_on": "HIV-1 US4 (GS 007)", "assay": "microbe, parasite or virus in culture", "type": "cell-based", "conditions": "Human immunodeficiency virus 1, primary strain US4 (GS 007), luciferase readout, mean ± SD", "procedure": "as §2"}, "[11]": {"assay": "XTT assay, CHO-WT cells", "type": "cell-based", "conditions": "Chinese hamster", "procedure": "as §1"}, "[12]": {"tested_on": "HIV-1 X4 virus", "assay": "Cell-cell HIV-1 X4 transmission, MT-2 to CEMx174 5.25 M7 cells", "type": "cell-based", "conditions": "Human immunodeficiency virus 1; infected MT-2 to CEMx174 5.25 M7 cells; luciferase", "procedure": "(§3) Inhibition of fusion between MT-2 cells infected by HIV-1 strains (X4 and R5 viruses) with CEMx174 5.25 M7 cells, which express CD4 and both coreceptors, CXCR4 and CCR5, was determined by a luciferase assay. Briefly, MT-2 cells were infected with the corresponding HIV-1 strains for 7 days. The infected MT-2 cells were washed three times and resuspended in culture medium to 2 × 10^5/ml. Then, 50 μl of a compound at graded concentrations in triplicate was incubated with equal volumes of HIV-1-infected MT-2 cells at 37°C for 30 min. Next, 100 μl of CEMx174 5.25 M7 cells (4 × 10^5/ml) was added, and the cells were incubated at 37°C for 3 days. The cells were collected, washed, and lysed with the lysing reagent included in the luciferase kit (Promega, Corp., Madison, Wis). Aliquots of cell lysates were transferred to 96-well flat-bottom luminometer plates (Costar), followed by the addition of luciferase substrate (Promega). Luciferase activity was measured using an Ultra 384 luminometer. ADS-J1 was used as a positive control for all cell–cell fusion assays."}, "[13]": {"tested_on": "HIV-1JR-FL Env mutant K574A pseudovirus", "type": "cell-based", "conditions": "compared with wild-type HIV-1JR-FL pseudovirus"}, "[14]": {"tested_on": "HIV-1 IIIB", "assay": "Cell-cell HIV-1 IIIB transmission, MT-2 to CEMx174 5.25 M7 cells", "type": "cell-based", "conditions": "Human immunodeficiency virus 1, IIIB; infected MT-2 to CEMx174 5.25 M7 cells; luciferase", "procedure": "as §3"}}, "data": [{"compound": "Cc1cc(/C=C2\\SC(=S)N(Cc3ccccc3C(F)(F)F)C2=O)c(C)n1-c1ccc(O)c(C(=O)O)c1", "note": "[NSPD-12m]", "values": [{"measurement": "IC50", "setting": "[1]", "result": "2.08 ± 0.041", "unit": "µM"}, {"measurement": "IC90", "setting": "[1]", "result": "2.48 ± 0.041", "unit": "µM"}, {"measurement": "CC50 at 3 days", "setting": "[2]", "result": "101.4 ± 0.48", "unit": "µM"}, {"measurement": "CC90 at 3 days", "setting": "[2]", "result": "122.5 ± 0.59", "unit": "µM"}, {"measurement": "IC50", "setting": "[3]", "result": "23.7 ± 5.15", "unit": "µM"}, {"measurement": "IC90", "setting": "[3]", "result": "32.5 ± 5.42", "unit": "µM"}, {"measurement": "IC50", "setting": "[4]", "result": "5.26 ± 0.762", "unit": "µM"}, {"measurement": "IC90", "setting": "[4]", "result": "19.6 ± 0.552", "unit": "µM"}, {"measurement": "IC50", "setting": "[5]", "result": "16.3 ± 3.03", "unit": "µM"}, {"measurement": "IC90", "setting": "[5]", "result": "33.9 ± 6.14", "unit": "µM"}, {"measurement": "EC50", "setting": "[6]", "result": "2.03 to 6.85", "unit": "µM"}, {"measurement": "inhibitory activity against R579A mutant pseudovirus", "setting": "[7]", "result": "retained the inhibitory activity"}, {"measurement": "IC50", "setting": "[8]; read-out: IC50", "result": "1.79 ± 0.238", "unit": "µM"}, {"measurement": "IC90", "setting": "[8]; read-out: IC90", "result": "3.48 ± 1.09", "unit": "µM"}, {"measurement": "IC50", "setting": "[9]", "result": "4.91 ± 0.13", "unit": "µM"}, {"measurement": "IC90", "setting": "[9]; read-out: IC90", "result": "6.76 ± 1.56", "unit": "µM"}, {"measurement": "IC50", "setting": "[10]; read-out: IC50", "result": "2.34 ± 0.353", "unit": "µM"}, {"measurement": "IC90", "setting": "[10]; read-out: IC90", "result": "5.27 ± 2.73", "unit": "µM"}, {"measurement": "CC50 at 3 days", "setting": "[11]", "result": "60 ± 13.2", "unit": "µM"}, {"measurement": "CC90 at 3 days", "setting": "[11]", "result": "74.6 ± 13.8", "unit": "µM"}, {"measurement": "EC50", "setting": "[12]", "result": "3.64 ± 0.34", "unit": "µM"}, {"measurement": "inhibitory activity against K574A mutant pseudovirus", "setting": "[13]", "result": "significant loss"}, {"measurement": "EC50", "setting": "[14]", "result": "1.99 ± 0.08", "unit": "µM"}]}]}
